This is an account of results in patent publication US7078022B2, “Sunscreen compositions and methods of use thereof” (Avon Products, Inc., priority 2002, dated 2006).

The nature of data set [1]: UV spectrum (UV absorbance, FIG. 1). Format: physicochemical. An excerpt:
FIG. 1 is a Ultraviolet (UV) spectrum showing the UV absorbance of 3-[2-(4-diethylaminophenyl)-2-oxoethyl]thiazolium salt.
FIG. 1 provides the UV spectrum for 3-[2-(4-diethylaminophenyl)-2-oxoethyl]thiazolium salt. […] The maximum UV absorption occurs at a wavelength of 350 nm.

Another data set has as its system skin. The data set is described as follows: Skin elasticity and wrinkling. As to conditions: no method or data given.

Counter-ions that a name gives are not always drawn.

`CCN(CC)c1ccc(C(=O)C[n+]2ccsc2)cc1` [3-[2-(4-diethylaminophenyl)-2-oxoethyl]thiazolium salt]: the “wavelength of maximum UV absorption” value in data set [1] was found to be 350 nm. For the same compound, the UV absorbing properties result in data set [1] (UV-A range) is “excellent UV absorber, particularly in the UV-A range”. In the data set on skin, the elasticity of skin result is given as “improve the elasticity” and the wrinkling of skin entry is “reduce the wrinkling of skin”.
